# From patent US5603943A, “Nasally administrable compositions” (Dott Research Laboratory, priority 1994, dated 1997)
# Several values for one entry are separate records, joined by “and”; a condition that tells them apart may be missing. Equal values may be shown once.
# Experiments:
# [1] = Salmon calcitonin blood concentration, nasal powder with calcium carbonate (Test Example 5); format: in vivo, healthy male adults (human)
# Experimental: A nasally administrable composition in powdery form was prepared by formulating salmon calcitonin as a physiologically active peptide at the rate of 200 MRC (IU) per 25 mg with calcium carbonate as a carrier having a mean particle size ranging from 40 to 45 μm.
# (§1) The resulting composition was nasally administered once at a dose of 25 mg to three healthy male adults and the blood (2.5 ml) was collected from each of the tested adults prior to administration and then at 5, 10, 15, 20, 30, 45, 60, 90, 120 and 180 minutes after administration. The concentration of the salmon calcitonin in each of the collected blood samples was assayed with a standard RIA assay kit.
# [2] = Salmon calcitonin blood concentration, nasal powder with magnesium stearate (Test Example 4); format: in vivo, healthy male adults (human)
# Experimental: A nasally administrable composition in powdery form was prepared by formulating salmon calcitonin as a physiologically active peptide at the rate of 200 MRC (IU) per 25 mg with magnesium stearate as a carrier having a mean particle size ranging from 40 to 45 μm.
# The resulting composition was nasally administered once at a dose of 25 mg to three healthy male adults and the blood (2.5 ml) was collected from each of the tested adults prior to administration and then at 5, 10, 15, 20, 30, 45, 60, 90, 120 and 180 minutes after administration. The concentration of the salmon calcitonin in each -of the collected blood samples was assayed with a standard RIA assay kit.
# [3] = Salmon calcitonin blood concentration, nasal powder with hydroxyapatite (Test Example 3); format: in vivo, healthy male adults (human); conditions: for Concentration of salmon calcitonin in the blood: nasal 200 MRC (IU)/25 mg, individual cases No. 4-7 in order
# Experimental: (§2) A nasally administrable composition in powdery form was prepared by formulating salmon calcitonin as a physiologically active peptide at the rate of 200 MRC (IU) per 25 mg with hydroxyapatite as a carrier having a mean particle size ranging from 40 to 45 μm.
# The resulting composition was nasally administered once at a dose of 25 mg to four healthy male adults and the blood (2.5 ml) was collected from each of the tested adults prior to administration and then at 5, 10, 15, 20, 30, 45, 60, 90, 120 and 180 minutes after administration. The concentration of the salmon calcitonin in each of the collected blood samples was assayed with a standard RIA assay kit.
# [4] = Nasal absorption, clinical effect and irritation (general statement); format: in vivo
# [5] = Salmon calcitonin blood concentration, nasal powder with aluminum hydroxide (Test Example 6); format: in vivo, healthy male adults (human); conditions: for Concentration of salmon calcitonin in the blood: nasal 200 MRC (IU)/25 mg, individual cases No. 14-16 in order
# Experimental: A nasally administrable composition in powdery form was prepared by formulating salmon calcitonin as a physiologically active peptide at the rate of 200 MRC (IU) per 25 mg with aluminum hydroxide as a carrier having a mean particle size ranging from 40 to 45 μm.
# as §1
# [6] = Salmon calcitonin blood concentration, nasal powder with hydroxyapatite (Test Example 2); format: in vivo, healthy male adults (human); conditions: for Concentration of salmon calcitonin in the blood: nasal 200 MRC (IU)/25 mg, individual cases No. 1-3 in order
# Experimental: as §2, §1
# [7] = relative, among calcitonins; cited from earlier work
# [8] = powder in specific carrier, nasal route
substance,measurement,setting,value
salmon calcitonin,absorption,[1],high extent of absorption
same,absorption,[2],high extent of absorption
same,absorption through the nasal cavity,[3],high extent of absorption
same,Concentration of salmon calcitonin in the blood,[3]; 0 min (predose),~ 7 pg/ml
same,Concentration of salmon calcitonin in the blood,[3]; 5 min,65.30 pg/mL and 66.02 pg/mL and 57.83 pg/mL and 72.72 pg/mL
same,Concentration of salmon calcitonin in the blood,[3]; 10 min,98.88 pg/mL and 95.22 pg/mL and 83.75 pg/mL and 130.21 pg/mL
same,Concentration of salmon calcitonin in the blood,[3]; 15 min,96.96 pg/mL and 106.69 pg/mL and 91.55 pg/mL and 139.54 pg/mL
same,Concentration of salmon calcitonin in the blood,[3]; 20 min,59.91 pg/mL and 102.60 pg/mL and 63.17 pg/mL and 122.29 pg/mL
same,Concentration of salmon calcitonin in the blood,[3]; 30 min,46.96 pg/mL and 71.13 pg/mL and 48.09 pg/mL and 91.38 pg/mL
same,Concentration of salmon calcitonin in the blood,[3]; 45 min,23.89 pg/mL and 57.42 pg/mL and 30.95 pg/mL and 45.91 pg/mL
same,Concentration of salmon calcitonin in the blood,[3]; 60 min,14.31 pg/mL and 33.21 pg/mL and 19.56 pg/mL and 15.62 pg/mL
same,Concentration of salmon calcitonin in the blood,[3]; 90 min,~ 7 pg/ml (2×) and 13.06 pg/ml and 10.39 pg/ml
same,Concentration of salmon calcitonin in the blood,[3]; 120 min,~ 7 pg/ml and 8.76 pg/ml
same,Concentration of salmon calcitonin in the blood,[3]; 180 min,~ 7 pg/ml
same,time of maximum concentration,[3]; nasal,reaching maximum in a short time after administration
same,bioavailability and concentration in blood,[4]; homogeneously dispersed in and adsorbed onto the carrier,high both in bioavailability and concentration in blood
same,absorption into the body,[4]; [8],well absorbed into the body
same,clinical effects,[4]; [8],high clinical effects
same,Concentration of salmon calcitonin in the blood,[5]; 0 min (predose),~ 7 pg/ml
same,Concentration of salmon calcitonin in the blood,[5]; 5 min,19.75 pg/mL and 26.41 pg/mL and 32.23 pg/mL
same,Concentration of salmon calcitonin in the blood,[5]; 10 min,19.35 pg/mL and 34.82 pg/mL and 24.85 pg/mL
same,Concentration of salmon calcitonin in the blood,[5]; 15 min,14.97 pg/mL and 31.66 pg/mL and 18.68 pg/mL
same,Concentration of salmon calcitonin in the blood,[5]; 20 min,~ 7 pg/ml and 37.63 pg/ml and 12.92 pg/ml
same,Concentration of salmon calcitonin in the blood,[5]; 30 min,9.15 pg/ml and 24.79 pg/ml and ~ 7 pg/ml
same,Concentration of salmon calcitonin in the blood,[5]; 45 min,~ 8 pg/ml and 13.70 pg/ml and ~ 7 pg/ml
same,Concentration of salmon calcitonin in the blood,[5]; 60 min,~ 7 pg/ml and 12.12 pg/ml
same,absorption,[5]; nasal,high extent of absorption
same,concentration in the blood versus injection,[5]; nasal,simlar to that obtainable by injection
same,Concentration of salmon calcitonin in the blood,[6]; 0 min (predose),~ 7 pg/ml
same,Concentration of salmon calcitonin in the blood,[6]; 5 min,55.50 pg/mL and 14.05 pg/mL and 76.25 pg/mL
same,Concentration of salmon calcitonin in the blood,[6]; 10 min,93.05 pg/mL and 44.12 pg/mL and 107.67 pg/mL
same,Concentration of salmon calcitonin in the blood,[6]; 15 min,49.84 pg/mL and 77.03 pg/mL and 118.26 pg/mL
same,Concentration of salmon calcitonin in the blood,[6]; 20 min,65.95 pg/mL and 59.36 pg/mL and 95.07 pg/mL
same,Concentration of salmon calcitonin in the blood,[6]; 30 min,21.08 pg/mL and 47.69 pg/mL and 102.78 pg/mL
same,Concentration of salmon calcitonin in the blood,[6]; 45 min,12.54 pg/mL and 24.68 pg/mL and 60.68 pg/mL
same,Concentration of salmon calcitonin in the blood,[6]; 60 min,13.50 pg/mL and 19.43 pg/mL and 42.97 pg/mL
same,Concentration of salmon calcitonin in the blood,[6]; 90 min,7.92 pg/ml and ~ 7 pg/ml and 21.78 pg/ml
same,Concentration of salmon calcitonin in the blood,[6]; 120 min,~ 7 pg/ml and 12.75 pg/ml
same,Concentration of salmon calcitonin in the blood,[6]; 180 min,~ 7 pg/ml
same,absorption into the blood,[6]; nasal,high degree of absorption
same,stability,[7],relatively low in stability
